Laboratory results reported in article PMC11099041, “Tissue distribution and retention drives efficacy of rapidly clearing VHL-based PROTACs” (Communications Medicine, 2024).
Like-named read-outs stand apart in the source and are kept apart here.

Assay: Mouse pharmacokinetics in CD-1 mice (blood, kidney, liver, lung)
Format: in vivo
Conditions: for Tmax: mouse, dose = c0, matrix = c1 of the line
Procedure: For the PK study, a total of 42 male CD-1 mice weighing ~20-35 g were acquired from Lingchang/Vital River Laboratory Animal Co., Ltd. (Shanghai/Beijing, P.R. China) and divided into 2 treatment groups. […] was dosed with one low dose (1 mg/kg) and one high dose group (20 mg/kg). For the low-dose groups, nine animals were required for organ quantification with termination at 24 hours. For the high-dose groups, 12 animals were required for organ quantification with termination at 48 hours. The animal was administered either 1 mg/kg or 20 mg/kg of formulation solution (10% HP-β-CD in acetate buffer at pH 4.0) by IV bolus through the left lateral tail vein injection. […] Blood samples were placed on wet ice, mixed, then frozen and stored in a freezer set to -60 °C or lower until analysis. After the blood samples were collected at the terminal time points, the animals were sacrificed, and the liver, lung and kidney were harvested. The tissues were rinsed in cold water and then blotted on filter papers, weighed and homogenized using pre-cooled water at the ratio of 1:4. The tissue homogenate samples were kept at -70 °C until analysis. […] Working standard solutions were spiked into 25 μL of blank matrix on the sample plate. […] The supernatant (20 μL) was transferred into the MS injection plate, then diluted with water before injection for LC-MS/MS analysis. The concentrations of […] were quantified by an LC-MS/MS method. The LC-MS/MS system was a Waters Acquity UPLC System (Milford, MA) coupled to a Sciex Triple Quad 6500 Plus mass spectrometer (AB Sciex, Foster City, CA). The aqueous mobile phase for the analysis was 0.1% formic acid and 2 mM ammonium formate in water/ACN (v:v, 95:5) (A), and the organic mobile phase was 0.1% formic acid and 2 mM ammonium formate in ACN/water (v:v, 95:5) (B). […] Column temperature was set at 50 °C. […] The flow rate was set at 0.7 mL/min. […] The lower limit of quantitation in all matrices was 5.1 ng/mL. The mean time concentration profile was generated for each group, and an overall AUC was then calculated with these sparse samples of rats and mice. […] The following parameters were estimated whenever possible: C0, Back-extrapolated concentration at time 0; Cmax, Maximum observed concentration; Tmax, Time of maximum observed concentration; AUC0-t, Area under the concentration-time curve from hour 0 to the last measurable concentration, estimated by the linear trapezoidal rule; AUC0-336, Area under the concentration-time curve from hour 0 to hour 336, estimated by the linear trapezoidal rule; DN AUC0-336, Dose normalized AUC0-336, calculated as AUC0-336/dose level; […] AUC0-∞ = AUC0-t + Ct/λz, where Ct is the last measurable concentration and λz is the elimination rate constant; t1/2, Elimination half-life, determined by ln(2)/λz; CL, Clearance, calculated as dose/AUC0-inf; Vd, Volume of distribution based on the terminal phase, calculated as: dose/(λz × AUC0-∞) Nominal doses and sampling times were used. […] Embedded zeros were excluded from kinetic analysis.

[1] = male, CD-1, mouse, in vivo, 1 mg/kg, Kidney, 1 mg/kg IV, individual animals, read-out: Concentration (µM) from 1 mg/kg Dosing Kidney
[2] = male, CD-1, mouse, in vivo, 1 mg/kg, Kidney, 1 mg/kg IV, mean, read-out: Concentration (µM) from 1 mg/kg Dosing Kidney
[3] = male, CD-1, mouse, in vivo, 1 mg/kg, Liver, 1 mg/kg IV, individual animals, read-out: Concentration (µM) from 1 mg/kg Dosing Liver
[4] = male, CD-1, mouse, in vivo, 1 mg/kg, Liver, 1 mg/kg IV, mean, read-out: Concentration (µM) from 1 mg/kg Dosing Liver
[5] = male, CD-1, mouse, in vivo, 1 mg/kg, Lung, 1 mg/kg IV, individual animals, read-out: Concentration (µM) from 1 mg/kg Dosing Lung
[6] = male, CD-1, mouse, in vivo, 1 mg/kg, Lung, 1 mg/kg IV, mean, read-out: Concentration (µM) from 1 mg/kg Dosing Lung
[7] = male, CD-1, mouse, in vivo, 20 mg/kg, Blood, 20 mg/kg IV, individual animals, read-out: Concentration (µM) from 20 mg/kg Dosing Blood
[8] = male, CD-1, mouse, in vivo, 20 mg/kg, Blood, 20 mg/kg IV, mean, read-out: Concentration (µM) from 20 mg/kg Dosing Blood
[9] = male, CD-1, mouse, in vivo, 20 mg/kg, Kidney, 20 mg/kg IV, individual animals, read-out: Concentration (µM) from 20 mg/kg Dosing Kidney
[10] = male, CD-1, mouse, in vivo, 20 mg/kg, Kidney, 20 mg/kg IV, mean, read-out: Concentration (µM) from 20 mg/kg Dosing Kidney
[11] = male, CD-1, mouse, in vivo, 20 mg/kg, Liver, 20 mg/kg IV, mean, read-out: Concentration (µM) from 20 mg/kg Dosing Liver
[12] = male, CD-1, mouse, in vivo, 20 mg/kg, Lung, 20 mg/kg IV, individual animals, read-out: Concentration (µM) from 20 mg/kg Dosing Lung
[13] = male, CD-1, mouse, in vivo, 20 mg/kg, Lung, 20 mg/kg IV, mean, read-out: Concentration (µM) from 20 mg/kg Dosing Lung
[14] = male, CD-1, mouse, kidney, intravenous, 20 mg/kg, Kidney, 20 mg/kg IV, individual animals, read-out: Concentration (µM) from 20 mg/kg Dosing Kidney
[15] = male, CD-1, mouse, kidney, intravenous, 20 mg/kg, Kidney, 20 mg/kg IV, mean, read-out: Concentration (µM) from 20 mg/kg Dosing Kidney
[16] = male, CD-1, mouse, liver, intravenous, 20 mg/kg, Liver, 20 mg/kg IV, mean, read-out: Concentration (µM) from 20 mg/kg Dosing Liver
[17] = male, CD-1, mouse, lung, intravenous, 20 mg/kg, Lung, 20 mg/kg IV, mean, read-out: Concentration (µM) from 20 mg/kg Dosing Lung

For `Cc1ncsc1-c1ccc(C(C)NC(=O)C2CC(O)CN2C(=O)C(c2cc(N3CCC(CN4CCC(OC5CC(Oc6cc(N7C8CCC7CN(c7cc(-c9ccccc9O)nnc7N)C8)ccn6)C5)CC4)CC3)no2)C(C)C)cc1` (centres unmarked) [A947], the concentration at 4 h (male, CD-1, mouse, in vivo, 1 mg/kg, Blood, 1 mg/kg IV, mean, read-out: Concentration (µM) from 1 mg/kg Dosing Blood) was 0.005 µM, the concentration at 4 h [1] was 0.753 µM and the concentration at 4 h [2] was 0.561 µM. The concentration at 8 h [1] was 0.282 µM, the concentration at 8 h [2] was 0.32 µM and the concentration at 24 h [1] was 0.019 µM. For the same compound, the concentration at 24 h [2] was 0.023 µM, the concentration at 4 h [3] was 0.071 µM and the concentration at 4 h [4] was 0.079 µM. The concentration at 8 h [3] was 0.057 µM, the concentration at 8 h [4] was 0.045 µM and the concentration at 24 h (male, CD-1, mouse, in vivo, 1 mg/kg, Liver, 1 mg/kg IV, individual animals, BLOQ <5.1 ng/mL, read-out: Concentration (µM) from 1 mg/kg Dosing Liver) was 0.006 µM. It also gave a concentration at 24 h [4] of 0.006 µM, a concentration at 4 h [5] of 0.098 µM and a concentration at 4 h [6] of 0.094 µM. It also gave a concentration at 8 h [5] of 0.048 µM, a concentration at 8 h [6] of 0.062 µM and a concentration at 24 h [5] of 0.014 µM. It also gave a concentration at 24 h [6] of 0.014 µM, a concentration at 0.083 h [7] of 13.3 µM and a concentration at 0.083 h [8] of 11.1 µM. It also gave a concentration at 0.25 h [7] of 4.28 µM, a concentration at 0.25 h [8] of 3.65 µM and a concentration at 0.5 h [7] of 2.54 µM. It also gave a concentration at 0.5 h [8] of 1.93 µM, a concentration at 1 h [7] of 0.951 µM and a concentration at 1 h [8] of 0.847 µM. The concentration at 2 h [7] was 0.294 µM, the concentration at 2 h [8] was 0.252 µM and the concentration at 4 h [8] was 0.154 µM. It also gave a concentration at 8 h [7] of 0.048 µM, a concentration at 8 h [8] of 0.047 µM and a concentration at 4 h [9] of 16.9 µM. It also gave a concentration at 4 h [10] of 14 µM, a concentration at 8 h [9] of 6.14 µM and a concentration at 8 h [10] of 8.43 µM. The concentration at 4 h [11] was 48.4 µM, the concentration at 8 h (male, CD-1, mouse, in vivo, 20 mg/kg, Liver, 20 mg/kg IV, individual animals, read-out: Concentration (µM) from 20 mg/kg Dosing Liver) was 15.1 µM and the concentration at 8 h [11] was 19.2 µM. For the same compound, the concentration at 4 h [12] was 5.1 µM, the concentration at 4 h [13] was 5.75 µM and the concentration at 8 h [12] was 1.59 µM. The concentration at 8 h [13] was 2.31 µM, the concentration at 24 h [14] was 0.28 µM and the concentration at 24 h [15] was 0.361 µM. It also gave a concentration at 48 h [14] of 0.11 µM, a concentration at 48 h [15] of 0.086 µM and a Kp (male, CD-1, mouse, kidney, intravenous, 20 mg/kg, for the 2 dose levels (1, 20 mg/kg), read-out: Tissue-to-blood AUC ratio, kidney) of 160 to 243. It also gave a concentration at 24 h (male, CD-1, mouse, liver, intravenous, 20 mg/kg, Liver, 20 mg/kg IV, individual animals, read-out: Concentration (µM) from 20 mg/kg Dosing Liver) of 14.3 µM, a concentration at 24 h [16] of 10.8 µM and a concentration at 48 h [16] of 1.9 µM. For the same compound, the Kp (male, CD-1, mouse, liver, intravenous, for the 2 dose levels, read-out: Tissue-to-blood AUC ratio, liver) was 50 to 127, the concentration at 24 h [17] was 0.602 µM and the concentration at 48 h [17] was 0.658 µM. It also gave a Kp (male, CD-1, mouse, lung, intravenous, for the 2 dose levels, read-out: Tissue-to-blood AUC ratio, lung) of 26 to 50, a clearance (male, CD-1, mouse, whole blood, iv, CD-1 mice IV, blood, dose = c0) of 15 to 20 mL/min/kg and a Tmax (male, blood, kidney, liver, lung (per row, column Matrix), CD-1 mice IV) of 0.083 h. The Tmax (male, kidney, liver, lung, CD-1 mice IV) was 4 h and the “Initial decrease of concentration in blood” value (mice IV 1 and 20 mg/kg, within initial 4 hours) was > 90%.
